Data taken from ChEMBL document CHEMBL4316596, “Antimicrobial Peptides with High Proteolytic Resistance for Combating Gram-Negative Bacteria” (J Med Chem, 2019).

Key:
Escherichia coli [1] = assay: Antimicrobial activity against Escherichia coli 078 after 24 hrs by NCCLS-protocol based assay; assay type: functional
Pseudomonas aeruginosa [2] = assay: Antimicrobial activity against Pseudomonas aeruginosa ATCC 27853 after 24 hrs by NCCLS-protocol based assay; assay type: functional
Salmonella typhimurium [3] = assay: Antimicrobial activity against Salmonella typhimurium C7731 after 24 hrs by NCCLS-protocol based assay; assay type: functional
Pseudomonas aeruginosa [4] = assay: Bactericidal activity against Pseudomonas aeruginosa CICC 21625 clinical isolates incubated for 4 hrs followed by culture spread on agar plates and cultured overnight; assay type: functional
Escherichia coli [5] = assay: Bactericidal activity against Escherichia coli 078 incubated for 4 hrs followed by culture spread on agar plates and cultured overnight; assay type: functional
[6] = tested on: Salmonella enterica subsp. enterica serovar Pullorum; assay: (§1) Antimicrobial activity against Salmonella pullorum C7913 after 24 hrs by NCCLS-protocol based assay; assay type: functional
Escherichia coli [7] = assay: Antimicrobial activity against Escherichia coli K99 after 24 hrs by NCCLS-protocol based assay; assay type: functional
Pseudomonas aeruginosa [8] = assay: Antimicrobial activity against Pseudomonas aeruginosa PAO1 after 24 hrs by NCCLS-protocol based assay; assay type: functional
Acinetobacter baumannii [9] = assay: Antimicrobial activity against Acinetobacter baumannii after 24 hrs by NCCLS-protocol based assay; assay type: functional
Escherichia coli [10] = assay: Bactericidal activity against Escherichia coli K88 incubated for 4 hrs followed by culture spread on agar plates and cultured overnight; assay type: functional
Pseudomonas aeruginosa [11] = assay: Bactericidal activity against Pseudomonas aeruginosa PAO1 incubated for 4 hrs followed by culture spread on agar plates and cultured overnight; assay type: functional
Klebsiella pneumoniae [12] = assay: Bactericidal activity against Klebsiella pneumoniae incubated for 4 hrs followed by culture spread on agar plates and cultured overnight; assay type: functional
Escherichia coli [13] = assay: Bactericidal activity against Escherichia coli K99 incubated for 4 hrs followed by culture spread on agar plates and cultured overnight; assay type: functional
Escherichia coli [14] = assay: Antimicrobial activity against Escherichia coli ATCC 25922 after 24 hrs by NCCLS-protocol based assay; assay type: functional
Pseudomonas aeruginosa [15] = assay: Bactericidal activity against Pseudomonas aeruginosa 25349 clinical isolates incubated for 4 hrs followed by culture spread on agar plates and cultured overnight; assay type: functional
Escherichia coli [16] = assay: Antimicrobial activity against Escherichia coli K88 after 24 hrs by NCCLS-protocol based assay; assay type: functional
[17] = tested on: Salmonella enterica subsp. enterica serovar Pullorum; assay: (§2) Bactericidal activity against Salmonella pullorum C7913 incubated for 4 hrs followed by culture spread on agar plates and cultured overnight; assay type: functional
Pseudomonas aeruginosa [18] = assay: Bactericidal activity against Pseudomonas aeruginosa CICC 21630 clinical isolates incubated for 4 hrs followed by culture spread on agar plates and cultured overnight; assay type: functional
Pseudomonas aeruginosa [19] = assay: Bactericidal activity against Pseudomonas aeruginosa 26305 clinical isolates incubated for 4 hrs followed by culture spread on agar plates and cultured overnight; assay type: functional
Acinetobacter baumannii [20] = assay: Bactericidal activity against Acinetobacter baumannii incubated for 4 hrs followed by culture spread on agar plates and cultured overnight; assay type: functional
Pseudomonas aeruginosa [21] = assay: Antimicrobial activity against Pseudomonas aeruginosa 25349 clinical isolates after 24 hrs by NCCLS-protocol based assay; assay type: functional
Pseudomonas aeruginosa [22] = assay: Antimicrobial activity against Pseudomonas aeruginosa CICC 21630 clinical isolates after 24 hrs by NCCLS-protocol based assay; assay type: functional
Pseudomonas aeruginosa [23] = assay: Antimicrobial activity against Pseudomonas aeruginosa 26305 clinical isolates after 24 hrs by NCCLS-protocol based assay; assay type: functional
Salmonella typhimurium [24] = assay: Bactericidal activity against Salmonella typhimurium C7731 incubated for 4 hrs followed by culture spread on agar plates and cultured overnight; assay type: functional
Escherichia coli [25] = assay: Bactericidal activity against Escherichia coli UB1005 incubated for 4 hrs followed by culture spread on agar plates and cultured overnight; assay type: functional
Salmonella typhimurium [26] = assay: Bactericidal activity against Salmonella typhimurium ATCC 14028 incubated for 4 hrs followed by culture spread on agar plates and cultured overnight; assay type: functional
Escherichia coli [27] = assay: Antimicrobial activity against Escherichia coli UB1005 after 24 hrs by NCCLS-protocol based assay; assay type: functional
Pseudomonas aeruginosa [28] = assay: Bactericidal activity against Pseudomonas aeruginosa ATCC 27853 incubated for 4 hrs followed by culture spread on agar plates and cultured overnight; assay type: functional
Pseudomonas aeruginosa [29] = assay: Antimicrobial activity against Pseudomonas aeruginosa CICC 21625 clinical isolates after 24 hrs by NCCLS-protocol based assay; assay type: functional
Pseudomonas aeruginosa [30] = assay: Ratio of MBC against Pseudomonas aeruginosa ATCC 27853 after 26 to 60 passages to MBC against Pseudomonas aeruginosa ATCC 27853; assay type: functional, organism-based
Salmonella typhimurium [31] = assay: Antimicrobial activity against Salmonella typhimurium ATCC 14028 after 24 hrs by NCCLS-protocol based assay; assay type: functional
Klebsiella pneumoniae [32] = assay: Antimicrobial activity against Klebsiella pneumoniae after 24 hrs by NCCLS-protocol based assay; assay type: functional
Escherichia coli [33] = assay: Bactericidal activity against Escherichia coli ATCC 25922 incubated for 4 hrs followed by culture spread on agar plates and cultured overnight; assay type: functional
Escherichia coli [34] = assay: Bactericidal activity against Escherichia coli ATCC 25922 incubated for 4 hrs followed by culture spread on agar plates and cultured overnight in presence of 50% serum albumin; assay type: functional; conditions: ATCC 25922, 4 h, read-out: MBC>99.9
Escherichia coli [35] = assay: Bactericidal activity against Escherichia coli ATCC 25922 incubated for 4 hrs followed by culture spread on agar plates and cultured overnight in presence of 25% serum albumin; assay type: functional; conditions: ATCC 25922, 4 h, read-out: MBC>99.9
[36] = as §1; assay type: functional, Salmonella enterica subsp. enterica serovar Pullorum; conditions: Salmonella enterica, C7913, 24 h
Escherichia coli [37] = assay: Bactericidal activity against Escherichia coli ATCC 25922 incubated for 4 hrs followed by culture spread on agar plates and cultured overnight in presence of FeCl3; assay type: functional; conditions: ATCC 25922, 4 h, read-out: MBC>99.9
[38] = as §2; assay type: functional, Salmonella enterica subsp. enterica serovar Pullorum; conditions: Salmonella enterica, C7913, 4 h; read-out: MBC>99.9
Escherichia coli [39] = assay: Bactericidal activity against Escherichia coli ATCC 25922 incubated for 4 hrs followed by culture spread on agar plates and cultured overnight in presence of CaCl2; assay type: functional; conditions: ATCC 25922, 4 h, read-out: MBC>99.9
Escherichia coli [40] = assay: Bactericidal activity against Escherichia coli ATCC 25922 incubated for 4 hrs followed by culture spread on agar plates and cultured overnight in presence of ZnCl2; assay type: functional; conditions: ATCC 25922, 4 h, read-out: MBC>99.9
Escherichia coli [41] = assay: Bactericidal activity against Escherichia coli ATCC 25922 incubated for 4 hrs followed by culture spread on agar plates and cultured overnight in presence of NaCl; assay type: functional; conditions: ATCC 25922, 4 h, read-out: MBC>99.9
Escherichia coli [42] = assay: Bactericidal activity against Escherichia coli ATCC 25922 incubated for 4 hrs followed by culture spread on agar plates and cultured overnight in presence of NH4Cl; assay type: functional; conditions: ATCC 25922, 4 h, read-out: MBC>99.9
Escherichia coli [43] = assay: Bactericidal activity against Escherichia coli ATCC 25922 incubated for 4 hrs followed by culture spread on agar plates and cultured overnight in presence of KCl; assay type: functional; conditions: ATCC 25922, 4 h, read-out: MBC>99.9
Escherichia coli [44] = assay: Bactericidal activity against Escherichia coli ATCC 25922 incubated for 4 hrs followed by culture spread on agar plates and cultured overnight in presence of 12.5% serum albumin; assay type: functional; conditions: ATCC 25922, 4 h, read-out: MBC>99.9
Escherichia coli [45] = assay: Bactericidal activity against Escherichia coli ATCC 25922 incubated for 4 hrs followed by culture spread on agar plates and cultured overnight in presence of MgCl2; assay type: functional; conditions: ATCC 25922, 4 h, read-out: MBC>99.9
[46] = Salmonella enterica subsp. enterica serovar Typhimurium

For GENTAMICIN, the MIC>95 (Escherichia coli [1]) was 0.25 µM, the MIC>95 (Pseudomonas aeruginosa [2]) was 1 µM and the MIC>95 (Salmonella typhimurium [3]; [46]) was 1 µM. The MBC>99.9 (Pseudomonas aeruginosa [4]) was 1 µM, the MBC>99.9 (Escherichia coli [5]) was 0.5 µM and the MIC>95 [6] was 1 µM. It also gave an MIC>95 (Escherichia coli [7]) of 0.25 µM, an MIC>95 (Pseudomonas aeruginosa [8]) of 2 µM and an MIC>95 (Acinetobacter baumannii [9]) of 0.25 µM. The MBC>99.9 (Escherichia coli [10]) was 0.25 µM, the MBC>99.9 (Pseudomonas aeruginosa [11]) was 2 µM and the MBC>99.9 (Klebsiella pneumoniae [12]) was 0.5 µM. The MBC>99.9 (Escherichia coli [13]) was 0.25 µM, the MIC>95 (Escherichia coli [14]) was 1 µM and the MBC>99.9 (Pseudomonas aeruginosa [15]) was 2 µM. It also gave an MIC>95 (Escherichia coli [16]) of 0.125 µM, an MBC>99.9 [17] of 1 µM and an MBC>99.9 (Pseudomonas aeruginosa [18]) of 2 µM. For the same substance, the MBC>99.9 (Pseudomonas aeruginosa [19]) was > 64 µM, the MBC>99.9 (Acinetobacter baumannii [20]) was 0.5 µM and the MIC>95 (Pseudomonas aeruginosa [21]) was 2 µM. For the same substance, the MIC>95 (Pseudomonas aeruginosa [22]) was 1 µM, the MIC>95 (Pseudomonas aeruginosa [23]) was > 64 µM and the MBC>99.9 (Salmonella typhimurium [24]; [46]) was 2 µM. It also gave an MBC>99.9 (Escherichia coli [25]) of 0.25 µM, an MBC>99.9 (Salmonella typhimurium [26]; [46]) of 2 µM and an MIC>95 (Escherichia coli [27]) of 0.25 µM. It also gave an MBC>99.9 (Pseudomonas aeruginosa [28]) of 1 µM, an MIC>95 (Pseudomonas aeruginosa [29]) of 1 µM and a Ratio (Pseudomonas aeruginosa [30]) of 32. It also gave an MIC>95 (Salmonella typhimurium [31]; [46]) of 1 µM, an MIC>95 (Klebsiella pneumoniae [32]) of 0.5 µM and an MBC>99.9 (Escherichia coli [33]) of 2 µM.

In the case of H-IKPIIKPIIKPIIKPIIKPIIKPI-NH2, the MBC (Escherichia coli [34]) is reported as > 128 µM, the MIC95 (Escherichia coli [1]; Escherichia coli, 078, 24 h) is reported as 64 µM and the MIC95 (Pseudomonas aeruginosa [2]; ATCC 27853, 24 h) is reported as > 64 µM. The MIC95 (Salmonella typhimurium [3]; Salmonella enterica, C7731, 24 h) was > 64 µM, the MBC (Pseudomonas aeruginosa [4]; CICC 21625, 4 h, read-out: MBC>99.9) was > 64 µM and the MBC (Escherichia coli [35]) was > 128 µM. For the same substance, the MBC (Escherichia coli [5]; Escherichia coli, 078, 4 h, read-out: MBC>99.9) was > 64 µM, the MIC95 [36] was 64 µM and the MIC95 (Escherichia coli [7]; K99, 24 h) was 8 µM. The MIC95 (Pseudomonas aeruginosa [8]; PAO1, 24 h) was > 64 µM, the MIC95 (Acinetobacter baumannii [9]) was 16 µM and the MBC (Escherichia coli [10]; K88, 4 h, read-out: MBC>99.9) was 8 µM. For the same substance, the MBC (Pseudomonas aeruginosa [11]; PAO1, 4 h, read-out: MBC>99.9) was > 64 µM, the MBC (Klebsiella pneumoniae [12]; read-out: MBC>99.9) was > 64 µM and the MBC (Escherichia coli [13]; K99, 4 h, read-out: MBC>99.9) was 16 µM. The MIC95 (Escherichia coli [14]; ATCC 25922, 24 h) was 16 µM, the MBC (Escherichia coli [37]) was > 128 µM and the MBC (Pseudomonas aeruginosa [15]; Pseudomonas aeruginosa, 25349, 4 h, read-out: MBC>99.9) was > 64 µM. For the same substance, the MIC95 (Escherichia coli [16]; K88, 24 h) was 4 µM, the MBC [38] was > 64 µM and the MBC (Pseudomonas aeruginosa [18]; CICC 21630, 4 h, read-out: MBC>99.9) was > 64 µM. For the same substance, the MBC (Pseudomonas aeruginosa [19]; Pseudomonas aeruginosa, 26305, 4 h, read-out: MBC>99.9) was > 64 µM, the MBC (Acinetobacter baumannii [20]; read-out: MBC>99.9) was 16 µM and the MBC (Escherichia coli [39]) was > 128 µM. The MIC95 (Pseudomonas aeruginosa [21]; Pseudomonas aeruginosa, 25349, 24 h) was > 64 µM, the MIC95 (Pseudomonas aeruginosa [22]; CICC 21630, 24 h) was > 64 µM and the MIC95 (Pseudomonas aeruginosa [23]; Pseudomonas aeruginosa, 26305, 24 h) was > 64 µM. The MBC (Escherichia coli [40]) was > 128 µM, the MBC (Salmonella typhimurium [24]; Salmonella enterica, C7731, 4 h, read-out: MBC>99.9) was > 64 µM and the MBC (Escherichia coli [41]) was > 128 µM. For the same substance, the MBC (Escherichia coli [25]; UB1005, 4 h, read-out: MBC>99.9) was 32 µM, the MBC (Escherichia coli [42]) was > 128 µM and the MBC (Escherichia coli [43]) was > 128 µM. The MBC (Salmonella typhimurium [26]; Salmonella enterica, ATCC 14028, 4 h, read-out: MBC>99.9) was > 64 µM, the MIC95 (Escherichia coli [27]; UB1005, 24 h) was 16 µM and the MBC (Escherichia coli [44]) was > 128 µM. The MBC (Pseudomonas aeruginosa [28]; ATCC 27853, 4 h, read-out: MBC>99.9) was > 64 µM, the MIC95 (Pseudomonas aeruginosa [29]; CICC 21625, 24 h) was > 64 µM and the MBC (Escherichia coli [45]) was > 128 µM. The MIC95 (Salmonella typhimurium [31]; Salmonella enterica, ATCC 14028, 24 h) was 64 µM, the MIC95 (Klebsiella pneumoniae [32]) was > 64 µM and the MBC (Escherichia coli [33]; ATCC 25922, 4 h, read-out: MBC>99.9) was 32 µM.
